According to patent US20060009478A1, “Methods for the treatment of back pain” (priority 2003, published 2006):

Assays:
[1] = Plasma concentrations of oxycodone, oxymorphone, noroxycodone, naltrexone and 6β-naltrexol by solid phase extraction LC-MS/MS
From the text: Patients with moderate-to-severe pain due to osteoarthritis of the hip or knee were randomly assigned to one of four treatment groups as shown in Table 3 of Example 1. Plasma samples were obtained for each patient at the beginning of Weeks 1, 2, 3 and at the end of dosing during Week 3.
For the analysis of linearity and dose proportionality, linear equation coefficients were obtained by averaging patient-specific slopes and intercepts obtained by within-patient least squares regression. This was done to account for the correlation among the repeated measurements due to the patient's contributing data at each dose level. The resulting slopes among treatment groups were compared by one-way analysis of variance (ANOVA), and a one-sample t-test assessed the common slope's difference from zero. A measure of deviation from linearity was constructed as the difference between the concentration at the middle dose versus the average of the concentrations at the lower and higher doses. Due to equal spacing of doses, this measure has expectation zero under the hypothesis of linearity. As above, ANOVA and t-tests were used to assess linearity.
To achieve symmetry, modified log transformations were used.

[2] = test system: patients with moderate to severe chronic pain due to osteoarthritis of the hip or knee; assay: Pain intensity (daily diary, 11-point numerical scale), 3-week osteoarthritis study; assay type: in vivo, human; details: ITT, LOCF, average of last two days of dosing week
Method: A multicenter, randomized, double-blind, active- and placebo-controlled, dose escalation, clinical study was designed and conducted. […] During a 4- to 7-day washout period, patients stopped taking all of their pain medication other than acetaminophen (500 mg every 4-6 hours PRN (a maximum of 5 caplets per day)).
Pain Intensity was assessed by prompting the patient with the question, “How would you rate your overall pain intensity at this time?”, and the PI score was recorded in the clinic. Pain Intensity was also assessed by prompting the patient with the question, “How would you rate your overall pain intensity during the past 24 hours?”, and a daily PI diary score was recorded by the patient at bedtime. For both Pain Intensity prompts, the response was scored on an 11-point numerical scale (0=no pain and 10=severe pain).
For the efficacy analysis, endpoints were represented and analyzed by week. Missing efficacy data was imputed across weeks using the last-observation-carried-forward (LOCF) method. Thus, the primary procedure for the analysis of efficacy data was based on a LOCF approach.
The daily pain intensity ratings were summarized as follows. For each week, the pain intensity recorded on the last two full days of dosing within the week, restricted to Day 5 or later, was averaged. If only a single observation was available, it was used; otherwise, the endpoint was not defined. The pain intensity averages were represented as both (1) a change from baseline and (2) a percent change from baseline. The baseline value was defined as the average pain intensity over the last two values recorded during the baseline period; if necessary, a single value was used.
For primary analysis of data, the primary efficacy endpoint was the percent change from baseline in pain intensity at Week 3. Percent change in pain intensity was analyzed using ANOVA methods. The ANOVA model included factors for treatment, sex, and their interaction. Additional covariates could be added to the model for exploratory purposes. Pairwise treatment group comparisons were made using contrasts within the ANOVA framework. Testing employed Type III sums of squares. If the assumptions of the parametric tests were not valid, non-parametric tests were used.

[3] = test system: patients with moderate to severe chronic pain due to osteoarthritis of the hip or knee; assay: Pain control, 3-week osteoarthritis study; assay type: in vivo, human; details: ITT (N = 102 per active group), LOCF
Method: Pain Control was also assessed weekly at clinic visits. The patient was prompted with the question, “During the past week, how would you describe your pain control during the course of each day?” Responses were selected from: Pain was controlled for (1) a few hours or less each day; (2) several hours each day; (3) most of each day; and (4) throughout each day.
The global assessment, quality of analgesia, and pain control, recorded at the end of each week, were summarized in terms of category proportions.
For secondary analysis of data, pain intensity changes, SF-12, and WOMAC were analyzed with the ANOVA methods as described above. Within treatment arms, weeks were compared in pairwise fashion using paired-sample methods. The global assessments, quality of analgesia ratings, and pain control was analyzed at each week, globally and in pairwise fashion, using the Cocharan-Mantel-Haenszel row mean scores (CMH-RMS) test, using equally spaced scores.

[4] = 11-point scale 0=no pain, 10=severe pain

Which “Mean plasma concentration versus dose level over the course of the study” value ([1]; FIGS. 1 and 2) does the source give for COc1ccc2c3c1O[C@H]1C(=O)CC[C@@]4(O)[C@@H](C2)N(C)CC[C@]314 [OXY QID, oxycodone] here?
The value was “increased linearly with increasing dose levels”.

And the “Plasma concentration of oxycodone (ng/mL) versus dose of oxycodone (mg/day): slope of linear equation” value ([1]; average of patient-specific regressions, slope p<0.001, t-test)?
Its value is 0.4223.

And the “Plasma concentration of oxycodone versus dose of oxycodone (mg/day): intercept of linear equation” value ([1]; average of patient-specific within-patient least squares regressions, all active treatments)?
The value was 2.28 ng/mL.

And the “Pain intensity, actual value at Week 1, mean” value ([2]; FEMALE, 11-point scale)?
The value was 6.2.

What about the “Pain intensity, actual value at Week 1, median” value ([2]; FEMALE, 11-point scale) of the same molecule?
The value was 6.3.

What about the “Pain intensity, actual value at Week 2, mean” value ([2]; FEMALE, 11-point scale) of the same molecule?
The value was 5.9.

What about the “Pain intensity, actual value at Week 2, median” value ([2]; FEMALE, 11-point scale) of the same molecule?
The value was 6.3.

And the “Pain intensity, actual value at Week 3, mean” value ([2]; FEMALE, 11-point scale)?
The value was 5.9.

And the “Pain intensity, actual value at Week 3, median” value ([2]; FEMALE, 11-point scale)?
The value was 6.0.

And the “Pain intensity, percent change from baseline to Week 1, mean” value [2]?
The value was −18.4%.

And the “Pain intensity, percent change from baseline to Week 1, median” value [2]?
The value was −16.7%.

What about the “Pain intensity, percent change from baseline to Week 2, mean” value [2] of the same molecule?
Its value is −22.9%.

And the “Pain intensity, percent change from baseline to Week 2, median” value [2]?
Its value is −20.0%.

And the “Pain intensity, percent change from baseline to Week 3, median” value [2]?
Its value is −20.0%.

What about the “Pain intensity, actual value at Week 1, mean” value [2, 4] of the same molecule?
The value was 6.1.

And the “Pain intensity, actual value at Week 1, median” value [2, 4]?
Its value is 6.0.

What about the “Pain intensity, actual value at Week 2, mean” value [2, 4] of the same molecule?
Its value is 5.8.

And the “Pain intensity, actual value at Week 2, median” value [2, 4]?
Its value is 6.0.

What about the “Pain intensity, actual value at Week 3, mean” value [2, 4] of the same molecule?
Its value is 5.6.

And the “Pain intensity, actual value at Week 3, median” value [2, 4]?
Its value is 5.5.

What about the “Pain intensity, percent change from baseline to Week 3, mean” value ([2]; primary efficacy endpoint) of the same molecule?
Its value is −24.6%.

What about the “Pain intensity, actual value at Week 2, mean” value ([2]; MALE, 11-point scale) of the same molecule?
Its value is 5.5.

What about the “Pain intensity, actual value at Week 2, median” value ([2]; MALE, 11-point scale) of the same molecule?
The value was 5.5.

And the “Pain intensity, actual value at Week 3, mean” value ([2]; MALE, 11-point scale)?
Its value is 5.0.

And the “Pain intensity, actual value at Week 3, median” value ([2]; MALE, 11-point scale)?
The value was 4.5.

What about the “Pain intensity, actual value at Week 1, mean” value ([2]; males, 11-point scale) of the same molecule?
The value was 5.9.

And the “Pain intensity, actual value at Week 1, median” value ([2]; males, 11-point scale)?
The value was 6.0.

And the “Pain control Week 1: PAIN CONTROLLED A FEW HRS/LESS EACH DAY (1), number (%) of patients” value [3]?
The value was 42 (41.2%).

And the “Pain control Week 1: PAIN CONTROLLED MOST OF EACH DAY (3), number (%) of patients” value [3]?
The value was 17 (16.7%).

And the “Pain control Week 1: PAIN CONTROLLED SEVERAL HRS EACH DAY (2), number (%) of patients” value [3]?
The value was 29 (28.4%).

And the “Pain control Week 1: PAIN CONTROLLED THROUGHOUT EACH DAY (4), number (%) of patients” value [3]?
The value was 10 (9.8%).

What about the “Pain control Week 2: PAIN CONTROLLED A FEW HRS/LESS EACH DAY (1), number (%) of patients” value [3] of the same molecule?
Its value is 36 (35.3%).

And the “Pain control Week 2: PAIN CONTROLLED MOST OF EACH DAY (3), number (%) of patients” value [3]?
The value was 26 (25.5%).

And the “Pain control Week 2: PAIN CONTROLLED SEVERAL HRS EACH DAY (2), number (%) of patients” value [3]?
Its value is 26 (25.5%).

And the “Pain control Week 2: PAIN CONTROLLED THROUGHOUT EACH DAY (4), number (%) of patients” value [3]?
The value was 10 (9.8%).

What about the “Pain control Week 3: PAIN CONTROLLED A FEW HRS/LESS EACH DAY (1), number (%) of patients” value [3] of the same molecule?
The value was 35 (34.3%).

And the “Pain control Week 3: PAIN CONTROLLED MOST OF EACH DAY (3), number (%) of patients” value [3]?
Its value is 27 (26.5%).

What about the “Pain control Week 3: PAIN CONTROLLED THROUGHOUT EACH DAY (4), number (%) of patients” value [3] of the same molecule?
The value was 8 (7.8%).
